Assay [1] has as its system erythroid progenitor cells (EPCs). Put plainly: Fetal hemoglobin (HbF) ELISA in day 7 erythroid progenitor cells.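 Note: for fetal hemoglobin induction normalized to vehicle-treated cells.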 The assay is classed as cell-based, human. As to conditions: Homo sapiens, Erythroid progenitor cell, HbF ELISA, day 7 EPCs, 5 days; read-out: EPC ELISA (pEC50 category) (converted). In short, it runs like this: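 Day 7 EPCs from human bone marrow CD34+ cells were plated at 1,000 cells/well in media with 3 U/mL rhEPO. They were exposed to a 22-point dilution ([…]) for 5 days at 37 °C. Lysate HbF was measured by sandwich ELISA (OD450) and normalized to DMSO control wells.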

For another assay, the target named is human full length DNMT1 (Homo sapiens (Human), UniProt P26358). Nature of the assay: DNMT1 breaklight assay. The assay is classed as biochemical. As to conditions: repeated experimental runs, read-out: average IC50 against DNMT1. As to the method:
DNMT1 breaklight in vitro assays were conducted in a total volume of 50 μl in a standard 384 well format, using black non-binding surface microplates (Corning 3575). Five μl of human full length DNMT1 (produced internally), used at a final concentration of 40 nM, was added to 5 μl of substrate mixture containing final concentrations of 125 nM hemi methylated oligonucleotide (synthesized at ATD Bio; 5′-FAM-[…]5[…]5G5TAGAT-3′ where 5=methyl deoxycitidine) and 2 μM ultrapure SAM (Cisbio #62SAHZLD). Negative control wells used 5 μl of DNMT1 and 5 μl of oligonucleotide but 0 μM SAM. All reagents were made up in 1× assay buffer (20 mM Tris pH 6.8, 25 mM NaCl, 0.5 mM MgCl2, 0.01% Triton X100 and 1 mM DTT). The reaction was incubated at 26° C. for 45 min and then stopped with the addition of 40 μl detection reagent. Detection reagent, made up in 1× Gla assay buffer (20 mM Tris pH 8.0, 80 mM NaCl, 0.75 mM MgCl2, 0.01% Triton X100 and 1 mM DTT) has a final concentration of 100 μM SAH (Sigma #A9384) and 0.0008 units/μl Gla1 restriction endonuclease (Sibenzyme #E494). Following addition of the detection reagent the plate was incubated in the dark at room temperature for 5 hr. Fluorescence intensity was then measured on the PHERAstar FS (BMG Labtech) at Ex 485 nm and Em 520 nm, with a gain of 400 and an integration time of 100 ms.

The next assay concerns the target DNMT1 (Homo sapiens, UniProt P26358). Nature of the assay: DNMT1 biochemical activity, breaklight assay and/or SPA assay. The note with it: binned activity in either the breaklight or the SPA assay; for IC50: read-out: DNMT1 BioChemical (pIC50 category) (converted).

Bounds are passed on as bounds.

Chain of human full length DNMT1 (P26358 whole entry): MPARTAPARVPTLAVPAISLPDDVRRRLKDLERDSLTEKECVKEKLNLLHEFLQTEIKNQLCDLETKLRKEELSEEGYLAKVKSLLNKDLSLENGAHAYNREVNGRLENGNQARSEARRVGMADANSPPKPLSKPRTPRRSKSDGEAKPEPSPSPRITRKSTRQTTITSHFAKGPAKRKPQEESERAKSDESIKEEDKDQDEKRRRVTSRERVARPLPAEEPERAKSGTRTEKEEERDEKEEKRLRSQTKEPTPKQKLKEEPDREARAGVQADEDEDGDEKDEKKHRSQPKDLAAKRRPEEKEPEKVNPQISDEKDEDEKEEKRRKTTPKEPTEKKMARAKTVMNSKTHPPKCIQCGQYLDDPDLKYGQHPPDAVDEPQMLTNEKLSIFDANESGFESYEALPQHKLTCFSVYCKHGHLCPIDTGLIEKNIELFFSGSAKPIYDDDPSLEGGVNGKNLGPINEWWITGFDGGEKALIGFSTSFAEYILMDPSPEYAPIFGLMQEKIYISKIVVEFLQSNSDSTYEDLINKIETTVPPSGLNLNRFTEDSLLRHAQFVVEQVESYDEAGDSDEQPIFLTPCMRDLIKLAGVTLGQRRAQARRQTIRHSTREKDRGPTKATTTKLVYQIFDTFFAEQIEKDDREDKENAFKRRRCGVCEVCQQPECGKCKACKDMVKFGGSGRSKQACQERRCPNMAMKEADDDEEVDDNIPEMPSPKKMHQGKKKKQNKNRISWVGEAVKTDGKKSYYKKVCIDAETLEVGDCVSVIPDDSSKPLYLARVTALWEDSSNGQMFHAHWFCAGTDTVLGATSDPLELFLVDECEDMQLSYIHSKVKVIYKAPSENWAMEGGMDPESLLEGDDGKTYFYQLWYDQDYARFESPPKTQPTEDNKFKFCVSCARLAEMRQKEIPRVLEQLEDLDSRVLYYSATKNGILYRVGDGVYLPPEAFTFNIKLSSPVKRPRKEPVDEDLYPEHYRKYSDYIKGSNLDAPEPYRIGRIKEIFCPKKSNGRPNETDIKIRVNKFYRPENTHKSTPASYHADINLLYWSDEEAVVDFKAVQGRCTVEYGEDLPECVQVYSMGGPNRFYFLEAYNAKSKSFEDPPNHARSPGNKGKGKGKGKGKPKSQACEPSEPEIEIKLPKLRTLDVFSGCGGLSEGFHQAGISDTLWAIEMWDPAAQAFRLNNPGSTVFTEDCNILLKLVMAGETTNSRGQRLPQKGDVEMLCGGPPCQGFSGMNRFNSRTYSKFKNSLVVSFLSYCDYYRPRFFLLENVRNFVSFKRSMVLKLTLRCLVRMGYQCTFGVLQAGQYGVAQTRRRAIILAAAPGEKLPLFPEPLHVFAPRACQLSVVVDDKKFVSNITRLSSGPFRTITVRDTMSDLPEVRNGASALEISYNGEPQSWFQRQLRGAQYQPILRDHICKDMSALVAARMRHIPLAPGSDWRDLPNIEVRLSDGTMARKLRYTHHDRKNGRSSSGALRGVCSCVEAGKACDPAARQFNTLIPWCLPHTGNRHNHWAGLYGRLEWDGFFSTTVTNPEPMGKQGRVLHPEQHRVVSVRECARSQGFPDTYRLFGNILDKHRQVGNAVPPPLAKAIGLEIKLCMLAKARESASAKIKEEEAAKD
Chain of DNMT1 (P26358 whole entry, looked up): as the sequence (P26358 whole entry) above

On to `CCc1c(C#N)c(SC(C(N)=O)c2ccccc2)nc(N2C[C@@H](C)N[C@@H](C)C2)c1C#N` (stereo partly drawn) [Example 61, 2-((3,5-Dicyano-6-((3S,5R)-3,5-dimethylpiperazin-1-yl)-4-ethylpyridin-2-yl)thio)-2-phenylacetamide], for which the EC50 in assay [1] was under 316 nM. For the same compound, the IC50 at human full length DNMT1 is at most 500 nM. Also, on DNMT1, the “DNMT1 BioChemical (pIC50 category)” value was “D (Category D: ≥6.5)”.
For the compound `CCc1c(C#N)c(SC(C(N)=O)c2ccccc2)nc(N2CCC3(CC2)CNC3)c1C#N` (centres unmarked) [Example 43, 2-((3,5-Dicyano-4-ethyl-6-(2,7-diazaspiro[3.5]nonan-7-yl)pyridin-2-yl)thio)-2-phenylacetamide], the EC50 in assay [1] was 316 to 1000 nM. For the same compound, the IC50 on human full length DNMT1 is at most 500 nM. The “DNMT1 BioChemical (pIC50 category)” value at DNMT1 is on record as “D (Category D: ≥6.5)”.
With `N#Cc1c(SC(C(N)=O)c2ccccc2)nc(N2CCNC(=O)C2)c(C#N)c1C1CC1` (centres unmarked) [Example 15, 2-{[3,5-dicyano-4-cyclopropyl-6-(3-oxopiperazin-1-yl)pyridin-2-yl]sulfanyl}-2-phenylacetamide], the EC50 in assay [1] is 1000 to 31600 nM. Further, the values for the IC50 on human full length DNMT1 and on DNMT1 were 440 nM and 316 to 1000 nM, respectively.
For `N#Cc1c(SC(C(N)=O)c2ccccc2)nc(N2CCC(N)CC2)c(C#N)c1C1CC1` (centres unmarked) [Example 28, 2-((6-(4-aminopiperidin-1-yl)-3,5-dicyano-4-cyclopropylpyridin-2-yl)thio)-2-phenylacetamide], the EC50 in assay [1] is under 316 nM. Further, the IC50 on human full length DNMT1 was at most 500 nM. Also, the “DNMT1 BioChemical (pIC50 category)” value at DNMT1 is reported as “D (Category D: ≥6.5)”.
As for `CN1CCN(c2nc(SC(C(N)=O)c3ccccc3)c(C#N)c(C3CC3)c2C#N)CC1=O` (centres unmarked) [Example 22], the EC50 in assay [1] is under 316 nM. For the same compound, the values for the IC50 on human full length DNMT1 and at DNMT1 were over 750 nM and 316 to 1000 nM, respectively.
In the same order, the values of `CCc1c(C#N)c(SC(C(N)=O)c2ccccc2)nc(N2CCN(CCCN)CC2)c1C#N` (centres unmarked) [Example 37, 2-((6-(4-(3-aminopropyl)piperazin-1-yl)-3,5-dicyano-4-ethylpyridin-2-yl)thio)-2-phenylacetamide] are 1000 to 31600 nM, at most 500 nM and 316 to 1000 nM.
For the compound `CCN1CCCN(c2nc(SC(C(N)=O)c3ccccc3)c(C#N)c(C3CC3)c2C#N)CC1` (centres unmarked) [Example 5, 2-{[3,5-dicyano-4-cyclopropyl-6-(4-ethyl-1,4-diazepan-1-yl)pyridin-2-yl]sulfanyl}-2-phenylacetamide], the EC50 in assay [1] is under 316 nM. In addition, the IC50 on human full length DNMT1 was at most 500 nM. For the same compound, at DNMT1, the “DNMT1 BioChemical (pIC50 category)” value is listed as “D (Category D: ≥6.5)”.
In the same order, the values of `CCc1c(C#N)c(SC(C(N)=O)c2ccccc2)nc(N2CCC3(CCO3)C2)c1C#N` (centres unmarked) [Example 36, 2-((3,5-Dicyano-4-ethyl-6-(1-oxa-6-azaspiro[3.4]octan-6-yl)pyridin-2-yl)thio)-2-phenylacetamide] are 1000 to 31600 nM, over 750 nM and “D (Category D: ≥6.5)”.
Turning to `CCc1c(C#N)c(SC(C(N)=O)c2ccccc2)nc(N(C)CCN2CCOCC2)c1C#N` (centres unmarked) [Example 11, 2-[(3,5-dicyano-4-ethyl-6-{methyl[2-(morpholin-4-yl)ethyl]amino}pyridin-2-yl)sulfanyl]-2-phenylacetamide], the EC50 in assay [1] was 316 to 1000 nM. The IC50 on human full length DNMT1 is 580 nM; on DNMT1 it was 316 to 1000 nM.
`CCc1c(C#N)c(SC(C(N)=O)c2ccccc2)nc(N2CCC2)c1C#N` (centres unmarked) [Example 58, 2-[[6-(azetidin-1-yl)-3,5-dicyano-4-ethyl-2-pyridyl]sulfanyl]-2-phenyl-acetamide]: the EC50 in assay [1] was 1000 to 31600 nM. The IC50 at human full length DNMT1 was over 750 nM. In addition, on DNMT1, the “DNMT1 BioChemical (pIC50 category)” value is “D (Category D: ≥6.5)”.
Consider `CC1CN(c2nc(SC(C(N)=O)c3ccccc3)c(C#N)c(C3CC3)c2C#N)CC(C)N1` (centres unmarked) [Example 20], for which the EC50 in assay [1] was under 316 nM. Further, the IC50 on human full length DNMT1 is at most 500 nM.

Values taken from US10975056B2 (GlaxoSmithKline Intellectual Property Development Limited, priority 2016, dated 2021).
